In patent US10035760B2, “Inhibitors of human immunodeficiency virus replication” (priority 2013, dated 2018) one finds EC50 data, which are given here for 32 compounds.

Read-outs that look alike come from different tables or passages of the source.

For this test, the system named is recombinant NL4-3 virus (Renilla luciferase) in MT-2 cells. The test can be described thus: HIV cell culture assay (antiviral activity, luciferase readout in infected MT-2 cells). The note with it: Renilla. The test is classed as cell-based. Put shortly: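 EC50 derived via median-effect equation from luciferase activity in MT-2 cells after 4–5 day infection, compound serially diluted. Virus: recombinant NL4-3 with Renilla luciferase replacing part of nef, made in 293T cells.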

Where [1] appears, read: NL43, read-out: Activity, antiviral activity class, recombinant NL4-3 Renilla luciferase virus in MT-2 cells.
Setting [2] is: NL43, recombinant NL4-3 Renilla luciferase virus in MT-2 cells.

Consider `CCN(C(=O)[C@H](Cc1ccccc1)NC(=O)NS(=O)(=O)c1cccc(-c2ccco2)c1)c1ccc(OC)cc1` [Example 149], for which the EC50 under setting [1] lay within 100 to 1000 nM.

Take `CCN(C(=O)[C@H](Cc1ccccc1)NC(=O)NS(=O)(=O)c1cccc(-c2ccsc2Cl)c1)c1ccc(OC)cc1` [Example 150, (S)-2-(3-((3-(2-chlorothiophen-3-yl)phenyl)sulfonyl)ureido)-N-ethyl-N-ethyl-N-(4-methoxyphenyl)-3-phenylpropanamide]: the EC50 under setting [1] is 100 to 1000 nM.

Turning to `CCN(C(=O)[C@H](Cc1ccccc1)NC(=O)NS(=O)(=O)c1cccc(-c2ccsc2)c1)c1ccc(OC)cc1` [Example 151, (S)—N-ethyl-N-(4-methoxyphenyl)-3-phenyl-2-(3-((3-(thiophen-3-yl)phenyl)sulfonyl)ureido)propanamide], the EC50 is 100 to 1000 nM under setting [1] and 110 nM under setting [2].

Consider `CCN(C(=O)[C@H](Cc1ccccc1)NC(=O)NS(=O)(=O)c1cccc(-c2ccnn2C)c1)c1ccc(OC)cc1` [Example 152, (S)—N-ethyl-N-(4-methoxyphenyl)-2-(3-((3-(1-methyl-1H-pyrazol-5-yl)phenyl)sulfonyl)ureido)-3-phenylpropanamide], for which the EC50 reads like this: under setting [1], less than 100 nM; under setting [2], 90 nM.

Turning to `CCN(C(=O)[C@H](Cc1ccccc1)NC(=O)NS(=O)(=O)c1cccc(-c2csc3ccccc23)c1)c1ccc(OC)cc1` [Example 153, (S)-2-(3-((3-(benzo[b]thiophen-3-yl)phenyl)sulfonyl)ureido)-N-ethyl-N-(4-methoxyphenyl)-3-phenylpropanamide], the EC50 under setting [1] lay in the range of 100 to 1000 nM.

`CCN(C(=O)[C@H](Cc1ccccc1)NC(=O)NS(=O)(=O)c1cccc(-c2cc3c(OC)cccc3[nH]2)c1)c1ccc(OC)cc1` [Example 154, (S)—N-ethyl-2-(3-((3-(4-methoxy-1H-indol-2-yl)phenyl)sulfonyl)ureido)-N-(4-methoxyphenyl)-3-phenylpropanamide]: the EC50 under setting [1] lay within 100 to 1000 nM and the EC50 under setting [2] is 670 nM.

For `CCN(C(=O)[C@H](Cc1ccccc1)NC(=O)NS(=O)(=O)c1cccc(-c2ccsc2Cl)c1C)c1ccc(OC)cc1` [Example 156, (S)-2-(3-((3-(2-chlorothiophen-3-yl)-2-methylphenyl)sulfonyl)ureido)-N-ethyl-N-(4-methoxyphenyl)-3-phenylpropanamide], the EC50 under setting [1] was in the range of 100 to 1000 nM.

As to `CCN(C(=O)[C@H](Cc1ccccc1)NC(=O)NS(=O)(=O)c1cccc(-c2ccsc2)c1C)c1ccc(OC)cc1` [Example 157, (S)—N-ethyl-N-(4-methoxyphenyl)-2-(3-((2-methyl-3-(thiophen-3-yl)phenyl)sulfonyl)ureido)-3-phenylpropanamide], under setting [1], the EC50 was 100 to 1000 nM.

In the case of `CCN(C(=O)[C@H](Cc1ccccc1)NC(=O)NS(=O)(=O)c1cccc(-c2ccnn2C)c1C)c1ccc(OC)cc1` [Example 158, (S)—N-ethyl-N-(4-methoxyphenyl)-2-(3-((2-methyl-3-(1-methyl-1H-pyrazol-5-yl)phenyl)sulfonyl)ureido)-3-phenylpropanamide], the EC50 is 100 to 1000 nM under setting [1] and 230 nM under setting [2].

`CCN(C(=O)[C@H](Cc1ccccc1)NC(=O)NS(=O)(=O)c1cccc(-c2cnoc2)c1C)c1ccc(OC)cc1` [Example 159, (S)—N-ethyl-2-(3-((3-(isoxazol-4-yl)-2-methylphenyl)sulfonyl)ureido)-N-(4-methoxyphenyl)-3-phenylpropanamide]: under setting [1], the EC50 fell in the range of 100 to 1000 nM.

Turning to `CCN(C(=O)[C@H](Cc1ccccc1)NC(=O)NS(=O)(=O)c1cccc(-c2csc(C(=O)O)c2)c1C)c1ccc(OC)cc1` [Example 160], the EC50 runs as follows: under setting [1], 1000 to 10000 nM; under setting [2], 5640 nM.

Turning to `CCN(C(=O)[C@H](Cc1ccccc1)NC(=O)NS(=O)(=O)c1cccc(-c2csc3ccccc23)c1C)c1ccc(OC)cc1` [Example 161, (S)-2-(3-((3-(benzo[b]thiophen-3-yl)-2-methylphenyl)sulfonyl)ureido)-N-ethyl-N-(4-methoxyphenyl)-3-phenylpropanamide], the EC50 under setting [1] lay within 1000 to 10000 nM.

For `CCN(C(=O)[C@H](Cc1ccccc1)NC(=O)NS(=O)(=O)c1cccc(-c2cc3c(OC)cccc3[nH]2)c1C)c1ccc(OC)cc1` [Example 162, (S)—N-ethyl-2-(3-((3-(4-methoxy-1H-indol-2-yl)-2-methylphenyl)sulfonyl)ureido)-N-(4-methoxyphenyl)-3-phenylpropanamide], the EC50 under setting [1] was 1000 to 10000 nM.

`Cc1cccc(N(C)C(=O)[C@H](Cc2ccccc2)NC(=O)NS(=O)(=O)c2ccccc2C)c1` [Example 163, (S)—N-methyl-3-phenyl-N-(m-tolyl)-2-(3-(o-tolylsulfonyl)ureido)propanamide]: under setting [1], the EC50 was in the range of 100 to 1000 nM.

With `Cc1ccccc1S(=O)(=O)NC(=O)N[C@@H](Cc1ccccc1)C(=O)N(C)c1ccc(Cl)cc1` [Example 164, (S)—N-(4-chlorophenyl)-N-methyl-3-phenyl-2-(3-(o-tolylsulfonyl)ureido)propanamide], the EC50 under setting [1] lay in the range of 100 to 1000 nM.

As for `COc1ccccc1N(C)C(=O)[C@H](Cc1ccccc1)NC(=O)NS(=O)(=O)c1ccccc1C` [Example 165, (S)—N-(2-methoxyphenyl)-N-methyl-3-phenyl-2-(3-(o-tolylsulfonyl)ureido)propanamide], under setting [1], the EC50 fell in the range of 1000 to 10000 nM.

On to `COc1cccc(N(C)C(=O)[C@H](Cc2ccccc2)NC(=O)NS(=O)(=O)c2ccccc2C)c1` [Example 166, (S)—N-(3-methoxyphenyl)-N-methyl-3-phenyl-2-(3-(o-tolylsulfonyl)ureido)propanamide], for which the EC50 under setting [1] lay within 100 to 1000 nM and the EC50 under setting [2] turned out to be 240 nM.

With `COc1ccc(N(C)C(=O)[C@H](Cc2ccccc2)NC(=O)NS(=O)(=O)c2ccccc2C)cc1` [Example 167, (S)—N-(4-methoxyphenyl)-N-methyl-3-phenyl-2-(3-(o-tolylsulfonyl)ureido)propanamide], the EC50 under setting [1] is less than 100 nM.

On to `Cc1ccccc1S(=O)(=O)NC(=O)N[C@@H](Cc1ccccc1)C(=O)N(C)c1cccc(F)c1` [Example 168, (S)—N-(3-fluorophenyl)-N-methyl-3-phenyl-2-(3-(o-tolylsulfonyl)ureido)propanamide], for which, under setting [1], the EC50 was 100 to 1000 nM.

For the compound `Cc1ccccc1S(=O)(=O)NC(=O)N[C@@H](Cc1ccccc1)C(=O)N(C)c1ccc(F)cc1` [Example 169, (S)—N-(4-fluorophenyl)-N-methyl-3-phenyl-2-(3-(o-tolylsulfonyl)ureido)propanamide], the EC50 under setting [1] lay in the range of 100 to 1000 nM.

Take `Cc1ccccc1S(=O)(=O)NC(=O)N[C@@H](Cc1ccccc1)C(=O)N1CCCc2ccccc21` [Example 170, (S)—N-((1-(3,4-dihydroquinolin-1(2H)-yl)-1-oxo-3-phenylpropan-2-yl)carbamoyl)-2-methylbenzenesulfonamide]: the EC50 under setting [1] was in the range of 1000 to 10000 nM.

As to `COc1ccc2c(c1)CCCN2C(=O)[C@H](Cc1ccccc1)NC(=O)NS(=O)(=O)c1ccccc1C` [Example 171, (S)—N-((1-(6-methoxy-3,4-dihydroquinolin-1(2H)-yl)-1-oxo-3-phenylpropan-2-yl)carbamoyl)-2-methylbenzenesulfonamide], under setting [1], the EC50 fell in the range of 100 to 1000 nM.

In the case of `COc1ccc2c(c1)OCCN2C(=O)[C@H](Cc1ccccc1)NC(=O)NS(=O)(=O)c1ccccc1C` [Example 172, (S)—N-((1-(7-methoxy-2H-benzo[b][1,4]oxazin-4(3H)-yl)-1-oxo-3-phenylpropan-2-yl)carbamoyl)-2-methylbenzenesulfonamide], the EC50 under setting [1] lay within 100 to 1000 nM and the EC50 under setting [2] stood at 270 nM.

On to `Cc1ccccc1S(=O)(=O)NC(=O)N[C@@H](Cc1ccccc1)C(=O)N1CCCc2cc(O)ccc21` [Example 173, (S)—N-((1-(6-hydroxy-3,4-dihydroquinolin-1 (2H)-yl)-1-oxo-3-phenylpropan-2-yl)carbamoyl)-2-methylbenzenesulfonamide], for which the EC50 under setting [1] was in the range of 100 to 1000 nM.

As for `Cc1ccccc1S(=O)(=O)NC(=O)N[C@@H](Cc1ccccc1)C(=O)N1CCc2ccccc21` [Example 174, (S)—N-((1-(indolin-1-yl)-1-oxo-3-phenylpropan-2-yl)carbamoyl)-2-methylbenzenesulfonamide], the EC50 under setting [1] was in the range of 1000 to 10000 nM and the EC50 under setting [2] was found to be 3840 nM.

As to `CCN(C(=O)[C@H](Cc1ccccc1)NC(=O)NS(=O)(=O)c1ccccc1C)c1ccc(C)c(C)c1` [Example 175, (S)—N-(3,4-dimethylphenyl)-N-ethyl-3-phenyl-2-(3-(o-tolylsulfonyl)ureido)propanamide], the EC50 under setting [1] was less than 100 nM.

As for `Cc1ccccc1S(=O)(=O)NC(=O)N[C@@H](Cc1ccccc1)C(=O)N(C)c1nc2ccccc2s1` [Example 176, (S)—N-(benzo[d]thiazol-2-yl)-N-methyl-3-phenyl-2-(3-(o-tolylsulfonyl)ureido)propanamide], the EC50 under setting [1] lay within 10000 to 100000 nM.

For `CCN(C(=O)[C@H](Cc1ccccc1)NC(=O)NS(=O)(=O)c1ccccc1C)c1ccc2ccccc2c1` [Example 177, (S)—N-ethyl-N-(naphthalen-2-yl)-3-phenyl-2-(3-(o-tolylsulfonyl)ureido)propanamide], the EC50 under setting [1] was less than 100 nM.

Consider `CCN(C(=O)[C@H](Cc1ccccc1)NC(=O)NS(=O)(=O)c1ccccc1C)c1ccc(OC(F)(F)F)cc1` [Example 178, (S)—N-ethyl-3-phenyl-2-(3-(o-tolylsulfonyl)ureido)-N-(4-(trifluoromethoxy)phenyl)propanamide], for which the EC50 by setting is: under setting [1], less than 100 nM; under setting [2], 80 nM.

With `Cc1ccccc1S(=O)(=O)NC(=O)N[C@@H](Cc1ccccc1)C(=O)N(C)C1CCCCC1` [Example 179, (S)—N-cyclohexyl-N-methyl-3-phenyl-2-(3-(o-tolylsulfonyl)ureido)propanamide], under setting [1], the EC50 lay within 1000 to 10000 nM.

Consider `Cc1ccccc1S(=O)(=O)NC(=O)N[C@@H](Cc1ccccc1)C(=O)N(C)Cc1ccccn1` [Example 180, (S)—N-methyl-3-phenyl-N-(pyridin-2-ylmethyl)-2-(3-(o-tolylsulfonyl)ureido)propanamide], for which the EC50 under setting [1] lay in the range of 1000 to 10000 nM.

With `CCN(C(=O)[C@H](Cc1ccccc1)NC(=O)NS(=O)(=O)c1ccccc1C)c1ccc(Cl)cc1` [Example 181, (S)—N-(4-chlorophenyl)-N-ethyl-3-phenyl-2-(3-(o-tolylsulfonyl)ureido)propanamide], the EC50 under setting [1] fell in the range of 100 to 1000 nM.
